Patent US9833497B2, “Human originated EGF domain proteins and use of the same” (CHENGDU SOURCEBIO LIMITED-LIABILITY COMPANY, priority 2013, dated 2017)

Legend:
Type in all cases: cell-based
[1] = tested on: Proteus vulgaris; experiment: MIC against Gram-negative bacteria: Proteus vulgaris; conditions: 5×10^5 CFU/mL
Outline: (§1)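 Purified recombinant human EGF domain proteins are tested by broth dilution in LB against a 5×10^5 CFU/mL inoculum, with two-fold serial dilutions run in triplicate. Plates are incubated at 37° C with shaking, and the MIC is read as the lowest protein concentration without growth.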

[2] = tested on: Serratia marcescens; experiment: MIC against Gram-negative bacteria: Serratia marcescens; conditions: 5×10^5 CFU/mL
Outline: as §1

[3] = tested on: E. coli BL21; experiment: MIC against Gram-negative bacteria: E. coli BL21; conditions: 5×10^5 CFU/mL
Outline: as §1

[4] = tested on: Enterobacter cloacae; experiment: MIC against Gram-negative bacteria: Enterobacter cloacae; conditions: 5×10^5 CFU/mL
Outline: as §1

[5] = tested on: Proteus mirabilis; experiment: MIC against Gram-negative bacteria: Proteus mirabilis; conditions: 5×10^5 CFU/mL
Outline: as §1

[6] = tested on: Klebsiella pneumonia; experiment: MIC against Gram-negative bacteria: Klebsiella pneumonia; conditions: 5×10^5 CFU/mL
Outline: as §1

[7] = tested on: E. coli DH5α; experiment: Antibacterial activity: MIC and growth curve against E. coli DH5α in 96-well plate; conditions: minimal inhibitory concentration against E. coli DH5α; 96-well plate, 5×10^5 CFU/mL, 37° C., judged after 8 h
Outline: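 Log-phase bacteria (OD600 ~0.5) resuspended in LB at 5×10^5 CFU/mL, exposed to recombinant protein at 50, 25, 12.5 μg/mL final in triplicate, 37 °C shaking at 175 rpm. OD600 read every 30 min; MIC is lowest concentration showing no growth.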

[8] = tested on: Aeromonas hydrophila; experiment: MIC against Gram-negative bacteria: Aeromonas hydrophila; conditions: 5×10^5 CFU/mL
Outline: as §1

[9] = tested on: Pseudomonas aeruginosa; experiment: MIC against Gram-negative bacteria: Pseudomonas aeruginosa; conditions: 5×10^5 CFU/mL
Outline: as §1

[10] = tested on: Citrobacter diversus; experiment: MIC against Gram-negative bacteria: Citrobacter diversus; conditions: 5×10^5 CFU/mL
Outline: as §1

[11] = tested on: Moraxella catarrhalis; experiment: MIC against Gram-negative bacteria: Moraxella catarrhalis; conditions: 5×10^5 CFU/mL
Outline: as §1

[12] = P. vulgaris, 10 h cultivation at 37° C.
[13] = S. marcescens, 10 h cultivation at 37° C.
[14] = E. coli BL21, 10 h cultivation at 37° C.
[15] = E. cloacae, 10 h cultivation at 37° C.
[16] = P. mirabilis, 10 h cultivation at 37° C.
[17] = K. pneumonia, 10 h cultivation at 37° C.
[18] = A. hydrophila, 10 h cultivation at 37° C.
[19] = P. aeruginosa, 10 h cultivation at 37° C.
[20] = C. diversus, 10 h cultivation at 37° C.
[21] = M. catarrhalis, 10 h cultivation at 37° C.
[22] = Proteus vulgaris, 96-well plate, 37° C., 10 h
[23] = Serratia marcescens, 96-well plate, 37° C., 10 h
[24] = E. coli BL21, 96-well plate, 37° C., 10 h
[25] = Enterobacter cloacae, 96-well plate, 37° C., 10 h
[26] = Proteus mirabilis, 96-well plate, 37° C., 10 h
[27] = Klebsiella pneumonia, 96-well plate, 37° C., 10 h
[28] = Aeromonas hydrophila, 96-well plate, 37° C., 10 h
[29] = Pseudomonas aeruginosa, 96-well plate, 37° C., 10 h
[30] = Citrobacter diversus, 96-well plate, 37° C., 10 h
[31] = Moraxella catarrhalis, 96-well plate, 37° C., 10 h
[32] = 10 h cultivation at 37° C., two-fold serial dilution

Substance: PRT644 (DINECQLQGVCPNGECLNTMGSYRCTCKIGFGPDPTFS; listed as Homo sapiens)
- MIC P. vulgaris ([1]; 96-well plate, 37° C., 10 h): 100 µg/mL
- MIC S. marcescens ([2]; 96-well plate, 37° C., 10 h): 25 µg/mL
- MIC E. coli BL21 ([3]; 96-well plate, 37° C., 10 h): 12.5 µg/mL
- MIC E. cloacae ([4]; 96-well plate, 37° C., 10 h): 25 µg/mL
- MIC P. mirabilis ([5]; 96-well plate, 37° C., 10 h): 25 µg/mL
- MIC K. pneumonia ([6]; 96-well plate, 37° C., 10 h): 50 µg/mL
- MIC [7]: 25 µg/mL
- MIC A. hydrophila ([8]; 96-well plate, 37° C., 10 h): 12.5 µg/mL
- MIC P. aeruginosa ([9]; 96-well plate, 37° C., 10 h): 25 µg/mL
- MIC C. diversus ([10]; 96-well plate, 37° C., 10 h): 25 µg/mL
- MIC M. catarrhalis ([11]; 96-well plate, 37° C., 10 h): 50 µg/mL

Substance: PRT184 (DLNYCTHHSPCKNGATCSNSGQRSYTCTCRPGYTGVDCE; listed as Homo sapiens)
- MIC (μg/mL) P. vulgaris [1, 12]: 12.5 µg/mL
- MIC (μg/mL) S. marcescens [2, 13]: 25 µg/mL
- MIC (μg/mL) E. coli BL21 [3, 14]: 12.5 µg/mL
- MIC (μg/mL) E. cloacae [4, 15]: 25 µg/mL
- MIC (μg/mL) P. mirabilis [5, 16]: 25 µg/mL
- MIC (μg/mL) K. pneumonia [6, 17]: 50 µg/mL
- MIC [7]: 25 µg/mL
- MIC (μg/mL) A. hydrophila [8, 18]: 12.5 µg/mL
- MIC (μg/mL) P. aeruginosa [9, 19]: 25 µg/mL
- MIC (μg/mL) C. diversus [10, 20]: 25 µg/mL
- MIC (μg/mL) M. catarrhalis [11, 21]: 50 µg/mL

Substance: PRT159 (EYDACQRKPCQNNASCIDANEKQDGSNFTCVCLPGYTGELCQ; listed as Homo sapiens)
- MIC (μg/mL) P. vulgaris [1, 12]: 12.5 µg/mL
- MIC (μg/mL) S. marcescens [2, 13]: 25 µg/mL
- MIC (μg/mL) E. coli BL21 [3, 14]: 50 µg/mL
- MIC (μg/mL) E. cloacae [4, 15]: 12.5 µg/mL
- MIC (μg/mL) P. mirabilis [5, 16]: 25 µg/mL
- MIC (μg/mL) K. pneumonia [6, 17]: 12.5 µg/mL
- MIC [7]: 25 µg/mL
- MIC (μg/mL) A. hydrophila [8, 18]: 12.5 µg/mL
- MIC (μg/mL) P. aeruginosa [9, 19]: 25 µg/mL
- MIC (μg/mL) C. diversus [10, 20]: 12.5 µg/mL
- MIC (μg/mL) M. catarrhalis [11, 21]: 12.5 µg/mL

Substance: PRT1313 (VADLCQDGHGGCSEHANCSQVGTMVTCTCLPDYEGDGWSCR; listed as Homo sapiens)
- MIC against P. vulgaris [1, 22]: 12.5 µg/mL
- MIC against S. marcescens [2, 23]: 50 µg/mL
- MIC against E. coli BL21 [3, 24]: 25 µg/mL
- MIC against E. cloacae [4, 25]: 12.5 µg/mL
- MIC against P. mirabilis [5, 26]: 50 µg/mL
- MIC against K. pneumonia [6, 27]: 25 µg/mL
- MIC [7]: 12.5 µg/mL
- MIC against A. hydrophila [8, 28]: 25 µg/mL
- MIC against P. aeruginosa [9, 29]: 50 µg/mL
- MIC against C. diversus [10, 30]: 50 µg/mL
- MIC against M. catarrhalis [11, 31]: 12.5 µg/mL

Substance: PRT777 (SGDRCQLQTRCQNGGQWDGLKCQCPSTFYGSSCE; listed as Homo sapiens)
- MIC (μg/mL) P. vulgaris [1, 12]: 25 µg/mL
- MIC (μg/mL) S. marcescens [2, 13]: 12.5 µg/mL
- MIC (μg/mL) E. coli BL21 [3, 14]: 12.5 µg/mL
- MIC (μg/mL) E. cloacae [4, 15]: 12.5 µg/mL
- MIC (μg/mL) P. mirabilis [5, 16]: 50 µg/mL
- MIC (μg/mL) K. pneumonia [6, 17]: 12.5 µg/mL
- MIC [7]: 50 µg/mL
- MIC (μg/mL) A. hydrophila [8, 18]: 50 µg/mL
- MIC (μg/mL) P. aeruginosa [9, 19]: 50 µg/mL
- MIC (μg/mL) C. diversus [10, 20]: 50 µg/mL
- MIC (μg/mL) M. catarrhalis [11, 21]: 12.5 µg/mL

Substance: PRT443 (DIDECENTDACQHECKNTFGSYQCICPPGYQLTHNGKTCQ; listed as Homo sapiens)
- MIC [1, 12]: 12.5 µg/mL
- MIC [2, 13]: 50 µg/mL
- MIC [3, 14]: 25 µg/mL
- MIC [4, 15]: 12.5 µg/mL
- MIC [5, 16]: 25 µg/mL
- MIC [6, 17]: 12.5 µg/mL
- MIC [7]: 12.5 µg/mL
- MIC [8, 18]: 12.5 µg/mL
- MIC [9, 19]: 12.5 µg/mL
- MIC [10, 20]: 25 µg/mL
- MIC [11, 21]: 12.5 µg/mL

Substance: PRT1311 (LLDPCSKNNGGCSPYATCKSTGDGQRTCTCDTAHTVGDGLTCR; listed as Homo sapiens)
- MIC against P. vulgaris [1, 22]: 25 µg/mL
- MIC against S. marcescens [2, 23]: 25 µg/mL
- MIC against E. coli BL21 [3, 24]: 25 µg/mL
- MIC against E. cloacae [4, 25]: 50 µg/mL
- MIC against P. mirabilis [5, 26]: 12.5 µg/mL
- MIC against K. pneumonia [6, 27]: 25 µg/mL
- MIC [7]: 50 µg/mL
- MIC against A. hydrophila [8, 28]: 12.5 µg/mL
- MIC against P. aeruginosa [9, 29]: 12.5 µg/mL
- MIC against C. diversus [10, 30]: 50 µg/mL
- MIC against M. catarrhalis [11, 31]: 25 µg/mL

Substance: PRT792 (YGVLCAETCQCVNGGKCYHVSGACLCEAGFAGERCE; listed as Homo sapiens)
- MIC (μg/mL) P. vulgaris [1, 12]: 12.5 µg/mL
- MIC (μg/mL) S. marcescens [2, 13]: 50 µg/mL
- MIC (μg/mL) E. coli BL21 [3, 14]: 50 µg/mL
- MIC (μg/mL) E. cloacae [4, 15]: 25 µg/mL
- MIC (μg/mL) P. mirabilis [5, 16]: 50 µg/mL
- MIC (μg/mL) K. pneumonia [6, 17]: 12.5 µg/mL
- MIC [7]: 12.5 µg/mL
- MIC (μg/mL) A. hydrophila [8, 18]: 50 µg/mL
- MIC (μg/mL) P. aeruginosa [9, 19]: 12.5 µg/mL
- MIC (μg/mL) C. diversus [10, 20]: 25 µg/mL
- MIC (μg/mL) M. catarrhalis [11, 21]: 12.5 µg/mL

Substance: PRT1169 (RDSQCDEATCNNGGTCYDEGDAFKCMCPGGWEGTTCN; listed as Homo sapiens)
- MIC P. vulgaris [1, 32]: 12.5 µg/mL
- MIC S. marcescens [2, 32]: 12.5 µg/mL
- MIC E. coli BL21 [3, 32]: 25 µg/mL
- MIC E. cloacae [4, 32]: 12.5 µg/mL
- MIC P. mirabilis [5, 32]: 12.5 µg/mL
- MIC K. pneumonia [6, 32]: 25 µg/mL
- MIC [7]: 50 µg/mL
- MIC A. hydrophila [8, 32]: 12.5 µg/mL
- MIC P. aeruginosa [9, 32]: 50 µg/mL
- MIC C. diversus [10, 32]: 50 µg/mL
- MIC M. catarrhalis [11, 32]: 12.5 µg/mL

Substance: PRT455 (DVNECSQENGGCLQICHNKPGSFHCSCHSGFELSSDGRTCQ; listed as Homo sapiens)
- MIC against P. vulgaris ([1]; 96-well plate, 37° C., 10 h): 100 µg/mL
- MIC against S. marcescens ([2]; 96-well plate, 37° C., 10 h): 50 µg/mL
- MIC against E. coli BL21 ([3]; 96-well plate, 37° C., 10 h): 12.5 µg/mL
- MIC against E. cloacae ([4]; 96-well plate, 37° C., 10 h): 50 µg/mL
- MIC against P. mirabilis ([5]; 96-well plate, 37° C., 10 h): 50 µg/mL
- MIC against K. pneumonia ([6]; 96-well plate, 37° C., 10 h): 12.5 µg/mL
- MIC [7]: 50 µg/mL
- MIC against A. hydrophila ([8]; 96-well plate, 37° C., 10 h): 12.5 µg/mL
- MIC against P. aeruginosa ([9]; 96-well plate, 37° C., 10 h): 50 µg/mL
- MIC against C. diversus ([10]; 96-well plate, 37° C., 10 h): 50 µg/mL
- MIC against M. catarrhalis ([11]; 96-well plate, 37° C., 10 h): 12.5 µg/mL

Substance: PRT1343 (VFHECFFNPCHNSGTCQQLGRGYVCLCPLGYTGLKCE; listed as Homo sapiens)
- MIC against P. vulgaris [1, 22]: 25 µg/mL
- MIC against S. marcescens [2, 23]: 50 µg/mL
- MIC against E. coli BL21 [3, 24]: 25 µg/mL
- MIC against E. cloacae [4, 25]: 25 µg/mL
- MIC against P. mirabilis [5, 26]: 12.5 µg/mL
- MIC against K. pneumonia [6, 27]: 25 µg/mL
- MIC [7]: 12.5 µg/mL
- MIC against A. hydrophila [8, 28]: 12.5 µg/mL
- MIC against P. aeruginosa [9, 29]: 50 µg/mL
- MIC against C. diversus [10, 30]: 50 µg/mL
- MIC against M. catarrhalis [11, 31]: 25 µg/mL
